Laboratory results reported in patent US20070054916A1, “Aryl nitrogen-containing bicyclic compounds and methods of use” (Amgen Inc., priority 2004, published 2007).

test system: production of TNF by monocytes activated with bacterial lipopolysaccharide (LPS); assay: Lipopolysaccharide-activated monocyte TNF production assay; assay type: cell-based; details: Homo sapiens, read-out: IC50 values in the monocyte assay (LPS induced TNF release)
Protocol: Lipopolysaccharide-Activated Monocyte TNF Production Assay
Test compounds were evaluated in vitro for the ability to inhibit the production of TNF by monocytes activated with bacterial lipopolysaccharide (LPS). Fresh residual source leukocytes (a byproduct of plateletpheresis) were obtained from a local blood bank, and peripheral blood mononuclear cells (PBMCs) were isolated by density gradient centrifugation on Ficol-Paque Plus (Pharmacia). PBMCs were suspended at 2×10^6/ml in DMEM supplemented to contain 2% FCS, 10 mM, 0.3 mg/ml […], 100 U/ml penicillin G and […] streptomycin sulfate (complete media). Cells were plated into Falcon flat bottom, 96 well culture plates (200 μl/well) and cultured overnight at 37° C. and 6% CO2. Non-adherent cells were removed by washing with 200 μl/well of fresh medium. Wells containing adherent cells (˜70% monocytes) were replenished with 100 μl of fresh medium.
Preparation of Test Compound Stock Solutions
Test compounds were dissolved in […]. Compound stock solutions were prepared to an initial concentration of […]. Stocks were diluted initially to 20-200 μM in complete media. Nine two-fold serial dilutions of each compound were then prepared in complete medium.
Treatment of Cells with Test Compounds and Activation of TNF Production with Lipopolysaccharide
One hundred microliters of each test compound dilution were added to microtiter wells containing adherent monocytes and 100 μl complete medium. Monocytes were cultured with test compounds for 60 min at which time 25 μl of complete medium containing 30 ng/ml lipopolysaccharide from E. coli K532 were added to each well. Cells were cultured an additional 4 hrs. Culture supernatants were then removed and TNF presence in the supernatants was quantified using an ELISA.
Flat bottom, 96 well Corning High Binding ELISA plates were coated overnight (4° C.) with 150 μL/well of 3 μg/ml murine anti-human TNF-α MAb (R&D Systems #MAB210). Wells were then blocked for 1 hr at room temperature with 200 μL/well of CaCl2-free ELISA buffer supplemented to contain 20 mg/ml BSA (standard ELISA buffer: […], 150 mM NaCl, 2 mM CaCl2, 0.15 mM thimerosal, pH 7.4). Plates were washed and replenished with 100 μl of test supernatants (diluted 1:3) or standards. Standards consisted of eleven 1.5-fold serial dilutions from a stock of 1 ng/ml recombinant human TNF (R&D Systems). Plates were incubated at room temperature for 1 hr on orbital shaker (300 rpm), washed and replenished with 100 μl/well of 0.5 ug/ml goat anti-human TNF-α (R&D systems #AB-210-NA) biotinylated at a 4:1 ratio. Plates were incubated for 40 min, washed and replenished with 100 μl/well of alkaline phosphatase-conjugated streptavidin (Jackson ImmunoResearch #016-050-084) at 0.02 ug/ml. Plates were incubated 30 min, washed and replenished with 200 μl/well of 1 mg/ml of p-nitrophenyl phosphate. After 30 min, plates were read at 405 nm on a Vmax plate reader.
Standard curve data were fit to a second order polynomial and unknown TNF-α concentrations determined from their OD by solving this equation for concentration. TNF concentrations were then plotted vs. test compound concentration using a second order polynomial. This equation was then used to calculate the concentration of test compounds causing a 50% reduction in TNF production.

Row | SMILES | IC50
1 | CCN(CC)S(=O)(=O)c1ccc(OC)c(NC(=O)c2ccc(C)c(-c3ccc4nc(N)ncc4c3)c2)c1 [Example 231, 3-(2-amino-6-quinazolinyl)-N-(5-((diethylamino)sulfonyl)-2-(methyloxy)phenyl)-4-methylbenzamide] | ≤ 25 µM
2 | Nc1ncc2cc(-c3cc(NC(=O)c4cccc(C(F)(F)F)c4)ccc3C(F)(F)F)ccc2n1 [Example 196] | ≤ 25 µM
3 | Cc1ccc(C(=O)Nc2ccc(I)cn2)cc1-c1ccc2nc(N)ncc2c1 [Example 353, 3-(2-amino-6-quinazolinyl)-N-(5-iodo-2-pyridinyl)-4-methylbenzamide] | ≤ 25 µM
4 | CCN(CC)CC(=O)N1CC(C)(C)c2ccc(NC(=O)c3ccc(C)c(-c4ccc5nc(N)ncc5c4)c3)cc21 [Example 64, 3-(2-amino-6-quinazolinyl)-N-(1-(N,N-diethyiglycyl)-3,3-dimethyl-2,3-dihydro-1H-indol-6-yl)-4-methylbenzamide] | ≤ 25 µM
5 | CN1CCN(c2ccc(C(F)(F)F)cc2NC(=O)c2cc(-c3ccc4nc(N)ncc4c3)ccc2F)CC1 [Example 421, 5-(2-amino-6-quinazolinyl)-2-fluoro-N-(2-(4-methyl-1-piperazinyl)-5-(trifluoromethyl)phenyl)benzamide] | ≤ 25 µM
6 | Cc1ccc(C(=O)Nc2nc(C(C)(C)C)cs2)cc1-c1ccc2nc(N)ncc2c1 [Example 352, 3-(2-amino-6-quinazolinyl)-N-(4-(1,1-dimethylethyl)-1,3-thiazol-2-yl)-4-methylbenzamide] | ≤ 25 µM
7 | CNc1ncc2cc(-c3cc(C(=O)Nc4ccc(NC(=O)NCCN5CCOCC5)c(C(F)(F)F)c4)ccc3C)cnc2n1 [Example 187, 4-methyl-3-(2-(methylamino)pyrido [2,3-d]pyrimidin-6-yl)-N-(4-((((2-(4-morpholinyl)ethyl)amino)carbonyl)amino)-3-(trifluoromethyl)phenyl)benzamide] | ≤ 25 µM
8 | Cc1ccc(C(=O)Nc2cccc(C(F)(F)F)c2)cc1-c1ccc2nc(NC3CC3)ncc2c1 [Example 29, 3-(2-(cyclopropylamino)-6-quinazolinyl)-4-methyl-N-(3-(trifluoromethyl)phenyl)benzamide] | ≤ 25 µM
9 | Cc1ccc(C(=O)Nc2cccc(C(F)(F)F)c2C)cc1-c1ccc2nc(NCCN3CCOCC3)ncc2c1 [Example 28, 4-methyl-N-(2-methyl-3-(trifluoromethyl)phenyl)-3-(2-((2-(4-morpholinyl)ethyl)amino)-6-quinazolinyl) benzamide] | ≤ 25 µM
10 | Cc1ccc(C(=O)Nc2c3c(nn2CCC#N)CCC3)cc1-c1ccc2nc(N)ncc2c1 [Example 304, 3-(2-amino-6-quinazolinyl)-N-(2-(2-cyanoethyl)-2,4,5,6-tetrahydrocyclopenta [c]pyrazol-3-yl)-4-methylbenzamide] | ≤ 25 µM
11 | CNc1ncc2cc(-c3cc(NC(=O)c4cccc(Cl)c4Cl)ccc3C)cnc2n1 [Example 201, 2,3-dichloro-N-(4-methyl-3-(2-(methylamino)pyrido[2,3-d]pyrimidin-6-yl)phenyl)benzamide] | ≤ 25 µM
12 | Cc1ccc(C(=O)Nc2cccc(C(F)(F)F)c2)cc1-c1ccc2nc(NCCN3CCOCC3)ncc2c1 [Example 20, 4-methyl-3-(2-((2-(4-morpholinyl)ethyl)amino)-6-quinazolinyl)-N-(3-(trifluoromethyl)phenyl)benzamide] | ≤ 25 µM
13 | O=C(Nc1cccc(C(F)(F)F)c1)c1cccc(-c2ccc3ccnc(O)c3c2)c1 [Example 51, 3-(1-hydroxy-7-isoquinolinyl)-N-(3-(trifluoromethyl)phenyl)benzamide] | ≤ 25 µM
14 | Cc1ccc(C(=O)OCc2ccccc2)cc1-c1ccc2nc(N)ncc2c1 [Example 160, phenylmethyl 3-(2-amino-6-quinazolinyl)-4-methylbenzoate] | ≤ 25 µM
15 | Cc1cccc(C)c1-c1ccc2nc(N)ncc2c1 [Example 535, 6-(2,6-dimethylphenyl)-2-quinazolinamine] | ≤ 25 µM
16 | Cc1ccc(C(=O)Nc2cc(C(F)(F)F)ccc2C(F)(F)F)cc1-c1ccc2nc(N)ncc2c1 [Example 77, 3-(2-amino-6-quinazolinyl)-N-(2,5-bis(trifluoromethyl)phenyl)-4-methylbenzamide] | ≤ 25 µM
17 | Nc1ncc2cc(-c3cc(NC(=O)c4cccc(C(F)(F)F)c4F)ccc3Cl)ccc2n1 [Example 481, N-(3-(2-amino-6-quinazolinyl)-4-chlorophenyl)-2-fluoro-3-(trifluoromethyl)benzamide] | ≤ 25 µM
18 | Cc1ccc(C(=O)Nc2cccc(C(F)(F)F)n2)cc1-c1ccc2nc(N)ncc2c1 [Example 359, 3-(2-amino-6-quinazolinyl)-4-methyl-N-(6-(trifluoromethyl)-2-pyridinyl)benzamide] | ≤ 25 µM
19 | Cc1ccc(C(=O)Nc2nnc(C(F)(F)F)s2)cc1-c1ccc2nc(N)ncc2c1 [Example 343, 3-(2-amino-6-quinazolinyl)-4-methyl-N-(5-(trifluoromethyl)-1,3,4-thiadiazol-2-yl)benzamide] | ≤ 25 µM
20 | Cc1ccc(C(=O)Nc2cccc(C(F)(F)F)c2F)cc1-c1ccc2nc(Nc3ccc(N4CCN(C)CC4)cc3)ncc2c1 [Example 30, N-(2-fluoro-3-(trifluoromethyl)phenyl)-4-methyl-3-(2-((4-(4-methyl-1-piperazinyl)phenyl)amino)-6-quinazolinyl) benzamide] | ≤ 25 µM
21 | Cc1cc(NC(=O)c2ccc(C)c(-c3ccc4nc(N)ncc4c3)c2)ns1 [Example 344, 3-(2-amino-6-quinazolinyl)-4-methyl-N-(5-methyl-3-isothiazolyl) benzamide] | ≤ 25 µM
22 | CNc1ncc2cc(-c3cc(C(=O)Nc4cccc(C(F)(F)F)c4C)ccc3C)ccc2n1 [Example 11, 4-methyl-3-(2-(methylamino)-6-quinazolinyl)-N-(2-methyl-3-(trifluoromethyl)phenyl)benzamide] | ≤ 25 µM
23 | Cc1ccc(C(=O)Nc2nc(C)c(C)s2)cc1-c1ccc2nc(N)ncc2c1 [Example 225, 3-(2-amino-6-quinazolinyl)-N-(4,5-dimethyl-1,3-thiazol-2-yl)-4-methylbenzamide] | ≤ 25 µM
24 | Cc1csc(NC(=O)c2ccc(C)c(-c3ccc4nc(N)ncc4c3)c2)n1 [Example 341, 3-(2-amino-6-quinazolinyl)-4-methyl-N-(4-thiazol-2-yl)benzamide] | ≤ 25 µM
25 | Cc1c(NC(=O)c2ccc(Cl)c(-c3ccc4nc(N)ncc4c3)c2)cccc1C(F)(F)F [Example 141, 3-(2-amino-6-quinazolinyl)-4-chloro-N-(2-methyl-3-(trifluoromethyl)phenyl)benzamide] | ≤ 25 µM
26 | Cc1ccc(C(=O)Nc2cc(C(F)(F)F)ccc2N2CCCCC2)cc1-c1ccc2nc(N)ncc2c1 [Example 76, 3-(2-amino-6-quinazolinyl)-4-methyl-N-(2-(1-piperidinyl)-5-(trifluoromethyl)phenyl)benzamide] | ≤ 25 µM
27 | Cc1ccc(C(=O)Nc2ccc(OCCCN(C)C)cc2)cc1-c1ccc2nc(N)ncc2c1 [Example 69, 3-(2-amino-6-quinazolinyl)-N-(4-((3-(dimethylamino)propyl)oxy)phenyl)-4-methylbenzamide] | ≤ 25 µM
28 | Cc1ccc(NC(=O)c2cc(C(F)(F)F)ccc2N(C)CCCN(C)C)cc1-c1ccc2nc(N)ncc2c1 [Example 431, N-(3-(2-amino-6-quinazolinyl)-4-methylphenyl)-2-((3-(dimethylamino)propyl)(methyl)amino)-5-(trifluoromethyl)benzamide] | ≤ 25 µM
29 | Nc1ncc2cc(-c3ccc(F)c(NC(=O)c4cc(F)cc(C(F)(F)F)c4)c3)ccc2n1 [Example 489, N-(5-(2-amino-6-quinazolinyl)-2-fluorophenyl)-3-fluoro-5-(trifluoromethyl)benzamide] | ≤ 25 µM
30 | CNc1ncc2cc(-c3cc(NC(=O)c4cc(F)cc(C(F)(F)F)c4)ccc3C)cnc2n1 [Example 217, 3-fluoro-N-(4-methyl-3-(2-(methylamino)pyrido[2,3-d]pyrimidin-6-yl)phenyl)-5-(trifluoromethyl) benzamide] | ≤ 25 µM
